Assay [1] deals with platelets and neutrophils. The assay is described as follows: In vivo activation of neutrophils and platelets after balloon angioplasty, flow cytometry of coronary sinus blood. The settings on record: humans, i.v. infusion 0.6 μg/kg/min from 10 min before to 1 day after angioplasty. Details: species or system human. On the procedure: Humans are subjected to balloon angioplasty, and receive either an intravenous infusion of 2-cyclohexylmethylenehydrazinoadenosine (0.6 μg/kg/min) or vehicle starting 10 minutes before the angioplasty procedure and continuing for 1 day following angioplasty. In vivo activation of neutrophils and platelets are measured by taking a blood sample from the coronary sinus and measuring the expression of surface adhesion molecules on platelets and neutrophils by flow cytometry.

In assay [2] the test system is humans with stenotic arteries (restenosis). Description: Incidence of restenosis by angiography six months after balloon angioplasty. As to conditions: i.v. infusion 0.6 μg/kg/min from 10 min before to 1 day after angioplasty. The assay is classed as in vivo, human. On the procedure: Humans afflicted with impaired blood flow due to stenotic arteries are subjected to balloon angioplasty, and receive either an intravenous infusion of 2-cyclohexylmethylenehydrazinoadenosine (0.6 μg/kg/min) or vehicle starting 10 minutes before the angioplasty procedure and continuing for 1 day following angioplasty. Six months following the balloon angioplasty procedure, angiography is performed on these subjects to examine the blood vessel subjected to the angioplasty.

The test system of assay [3] is rabbits with focal femoral atherosclerosis (arterial stenosis). The assay is described as follows: Restenosis after balloon angioplasty in rabbits with focal femoral atherosclerosis. The settings on record: rabbit. It counts as in vivo. On the procedure:
Focal femoral atherosclerosis is induced in rabbits by air desiccation endothelial injury followed by a 2% cholesterol, 6% peanut oil diet for one month. The degree of arterial stenosis is assessed angiographically. At this time, balloon angioplasty is performed using a 2.5 mm balloon, which is inserted into the region of stenosis and inflated with three 60-second, 10-atmosphere inflations 60 seconds apart. This procedure is similar to that used in humans for clearing coronary blood vessels. Rabbits receive an intravenous infusion of 2-cyclohexylmethylenehydrazinoadenosine (0.6 μg/kg/min) or vehicle starting 10 minutes before the angioplasty procedure and continuing for 1 day following angioplasty. Angiograms are performed before and after angioplasty and at 28 days after angioplasty. These angiograms are analyzed quantitatively for decrease of arterial stenosis. Rabbits are sacrificed 28 days following angioplasty and arteries are analyzed histopathologically and morphometrically.
Example 1 is followed, with the exception that one rabbit group is treated with an effective amount of a combination of (±)-N^6-endonorboman-2-yl-9-methyladenine (0.25 mg/kg/min) and 5′-N-ethylcarboxamidoadenosine (6 μg/kg/min) instead of 2-cyclohexylmethylenehydrazinoadenosine. […]

Experimental findings from US6372723B1, “Compositions and methods for preventing restenosis following revascularization procedures” (Discovery Therapeutics, Inc., priority 1997, dated 2002) are described below.

In the case of `Nc1nc(NN=CC2CCCCC2)nc2c1ncn2[C@@H]1O[C@H](CO)[C@@H](O)[C@H]1O` [2-cyclohexylmethylenehydrazinoadenosine], in assay [1], the “neutrophils that express surface adhesion molecules vs vehicle group” value is on record as “significantly fewer” and the “platelets that express surface adhesion molecules vs vehicle group” value is reported as “significantly fewer”. Also, the “incidence of restenosis vs vehicle group” value in assay [2] was “significantly less”. The “degree of arterial stenosis vs vehicle group” value in assay [3] (i.v. infusion 0.6 μg/kg/min from 10 min before to 1 day after angioplasty, assessed 28 days after angioplasty) was “significantly less”.

As to `Cn1cnc2c(N[C@@H]3C[C@@H]4CC[C@H]3C4)ncnc21` (racemic) [(±)-N^6-endonorbornan-2-yl-9-methyladenine, reference compound], the “degree of arterial stenosis vs vehicle group” value in assay [3] (A1 antagonist alone 0.25 μg/kg/min, as Example 1) is on record as “significantly less”.
